# Data published in patent US20260027068A1, “METHODS OF ADM[…]-KETAMINE” (Perception Neuroscience, Inc., priority 2022, published 2026).
# System: subjects with TRD
# Assay: Adverse events (TEAEs, SAEs) in the TRD study
# Format: in vivo, human
# Conditions: 60 mg (n = 35)
# Description: The definitions of an AE and SAE can be found in Section F. AEs were reported by the subject (or, when appropriate, by a caregiver, surrogate, or the subject's legally authorized representative). The Investigator and any designees were responsible for detecting, documenting, and recording events that meet the definition of an AE or SAE and remained responsible for following up AEs that were serious, considered related to the study treatment or study procedures, or that caused the subject to discontinue from the study.
# All AEs were collected from the signing of the ICF until the second follow-up visit (Day 15) at the time points specified in the Schedule of Activities (Section C). Medical occurrences that began before the start of study treatment but after obtaining informed consent were recorded on the Medical History/Current Medical Conditions section of the CRF, not the AE section. All SAEs were recorded and reported to the Sponsor or designee within 24 hours as indicated in Section F. The Investigator submitted any updated SAE data to the Sponsor or designee within 24 hours of it being available. Investigators were not obligated to actively seek AE or SAE information after the conclusion of study participation. However, if the Investigator learns of any SAE, including a death, at any time after a subject has been discharged from the study, and he/she considers the event to be reasonably related to the study treatment or study participation, the Investigator must promptly notify the Sponsor or designee. The method of recording, evaluating, and assessing the causality of AEs and SAEs and the procedures for completing and transmitting SAE reports are provided in Section F.
# An AE is any untoward medical occurrence in a patient or subject, temporally associated with the use of study treatment, whether or not considered related to the study treatment. An AE can therefore be any unfavorable and unintended sign (including an abnormal laboratory finding), symptom, or disease (new or exacerbated) temporally associated with the use of study treatment.
# If an event is not an AE per the definition above, then it cannot be an SAE even if serious conditions are met (e.g., hospitalization for signs/symptoms of the disease under study). A Serious Adverse Event (SAE) is defined as any untoward medical occurrence that, at any dose: a) results in death; b) is life-threatening; c) requires inpatient hospitalization or prolongation of existing hospitalization; d) results in persistent disability/incapacity; or e) is a congenital anomaly/birth defect. The term “life-threatening” in the definition of “serious” refers to an event in which the subject was at risk of death at the time of the event. […] In general, hospitalization signifies that the subject has been detained (usually involving at least an overnight stay) at the hospital or emergency ward for observation and/or treatment that would not have been appropriate in the physician's office or outpatient setting. Complications that occur during hospitalization are AEs. If a complication prolongs hospitalization or fulfills any other serious criteria, the event is serious. When in doubt as to whether “hospitalization” occurred or was necessary, the AE should be considered serious. […] The term disability means a substantial disruption of a person's ability to conduct normal life functions.
# (MedDRA; Version 23.0 or higher). Treatment-emergent adverse events (TEAEs) are AEs with onset or worsening after the start of study treatment. The AE summaries will be primarily based on TEAEs. The number and percentage of subjects with TEAEs will be summarized by treatment group, system organ class, and preferred term for all TEAEs, treatment-related TEAEs, SAEs, serious TEAEs, severe TEAEs, TEAEs of special interest, and all TEAEs leading to study drug discontinuation. All TEAEs will be further summarized by maximum severity and causality. The TEAEs of special interest will be identified in the SAP. […]
smiles,measurement,value
CN[C@@]1(c2ccccc2Cl)CCCCC1=O [PCN 101],Number of subjects with any treatment-emergent adverse events,18
same,Number of treatment-emergent adverse events,53
same,Subjects with any treatment-emergent adverse events: (%) of subjects,(51)
same,TEAE PT Alopecia: (%) of subjects,(3)
same,TEAE PT Alopecia: number of subjects,1
same,TEAE PT Aversion: (%) of subjects,(0)
same,TEAE PT Aversion: number of subjects,0
same,TEAE PT Balance disorder: (%) of subjects,(0)
same,TEAE PT Balance disorder: number of subjects,0
same,TEAE PT Blood pressure increased: (%) of subjects,(3)
same,TEAE PT Blood pressure increased: number of subjects,1
same,TEAE PT Bruxism: (%) of subjects,(0)
same,TEAE PT Bruxism: number of subjects,0
same,TEAE PT Confusional state: (%) of subjects,(3)
same,TEAE PT Confusional state: number of subjects,1
same,TEAE PT Defect conduction intraventricular: (%) of subjects,(3)
same,TEAE PT Defect conduction intraventricular: number of subjects,1
same,TEAE PT Derealisation: (%) of subjects,(9)
same,TEAE PT Derealisation: number of subjects,3
same,TEAE PT Diarrhoea: (%) of subjects,(0)
same,TEAE PT Diarrhoea: number of subjects,0
same,TEAE PT Dissociation: (%) of subjects,(0)
same,TEAE PT Dissociation: number of subjects,0
same,TEAE PT Dizziness: (%) of subjects,(20)
same,TEAE PT Dizziness: number of subjects,7
same,TEAE PT Dry mouth: (%) of subjects,(3)
same,TEAE PT Dry mouth: number of subjects,1
same,TEAE PT Dysarthria: (%) of subjects,(6)
same,TEAE PT Dysarthria: number of subjects,2
same,TEAE PT Dyspnoea exertional: (%) of subjects,(0)
same,TEAE PT Dyspnoea exertional: number of subjects,0
same,TEAE PT Energy increased: (%) of subjects,(3)
same,TEAE PT Energy increased: number of subjects,1
same,TEAE PT Euphoric mood: (%) of subjects,(3)
same,TEAE PT Euphoric mood: number of subjects,1
same,TEAE PT Fatigue: (%) of subjects,(3)
same,TEAE PT Fatigue: number of subjects,1
same,TEAE PT Feeling abnormal: (%) of subjects,(3)
same,TEAE PT Feeling abnormal: number of subjects,1
same,TEAE PT Feeling drunk: (%) of subjects,(6)
same,TEAE PT Feeling drunk: number of subjects,2
same,TEAE PT Haematuria: (%) of subjects,(0)
same,TEAE PT Haematuria: number of subjects,0
same,TEAE PT Headache: (%) of subjects,(6)
same,TEAE PT Headache: number of subjects,2
same,TEAE PT Hyperacusis: (%) of subjects,(0)
same,TEAE PT Hyperacusis: number of subjects,0
same,TEAE PT Hyperhidrosis: (%) of subjects,(0)
same,TEAE PT Hyperhidrosis: number of subjects,0
same,TEAE PT Hyperphagia: (%) of subjects,(3)
same,TEAE PT Hyperphagia: number of subjects,1
same,TEAE PT Hypoaesthesia oral: (%) of subjects,(3)
same,TEAE PT Hypoaesthesia oral: number of subjects,1
same,TEAE PT Hypoaesthesia: (%) of subjects,(0)
same,TEAE PT Hypoaesthesia: number of subjects,0
same,TEAE PT Increased appetite: (%) of subjects,(3)
same,TEAE PT Increased appetite: number of subjects,1
same,TEAE PT Influenza like illness: (%) of subjects,(0)
same,TEAE PT Influenza like illness: number of subjects,0
same,TEAE PT Infusion site hypoaesthesia: (%) of subjects,(3)
same,TEAE PT Infusion site hypoaesthesia: number of subjects,1
same,TEAE PT Left ventricular hypertrophy: (%) of subjects,(3)
same,TEAE PT Left ventricular hypertrophy: number of subjects,1
same,TEAE PT Lethargy: (%) of subjects,(3)
same,TEAE PT Lethargy: number of subjects,1
same,TEAE PT Limb discomfort: (%) of subjects,(0)
same,TEAE PT Limb discomfort: number of subjects,0
same,TEAE PT Logorrhoea: (%) of subjects,(0)
same,TEAE PT Logorrhoea: number of subjects,0
same,TEAE PT Memory impairment: (%) of subjects,(0)
same,TEAE PT Memory impairment: number of subjects,0
same,TEAE PT Muscle strain: (%) of subjects,(0)
same,TEAE PT Muscle strain: number of subjects,0
same,TEAE PT Muscular weakness: (%) of subjects,(3)
same,TEAE PT Muscular weakness: number of subjects,1
same,TEAE PT Nausea: (%) of subjects,(9)
same,TEAE PT Nausea: number of subjects,3
same,TEAE PT Paraesthesia: (%) of subjects,(6)
same,TEAE PT Paraesthesia: number of subjects,2
same,TEAE PT Rhinorrhoea: (%) of subjects,(0)
same,TEAE PT Rhinorrhoea: number of subjects,0
same,TEAE PT Sedation: (%) of subjects,(3)
same,TEAE PT Sedation: number of subjects,1
same,TEAE PT Sensory disturbance: (%) of subjects,(0)
same,TEAE PT Sensory disturbance: number of subjects,0
same,TEAE PT Sinusitis: (%) of subjects,(0)
same,TEAE PT Sinusitis: number of subjects,0
same,TEAE PT Skin abrasion: (%) of subjects,(3)
same,TEAE PT Skin abrasion: number of subjects,1
same,TEAE PT Slow speech: (%) of subjects,0)
same,TEAE PT Slow speech: number of subjects,0
same,TEAE PT Smoke sensitivity: (%) of subjects,(3)
same,TEAE PT Smoke sensitivity: number of subjects,1
same,TEAE PT Somnolence: (%) of subjects,(11)
same,TEAE PT Somnolence: number of subjects,4
same,TEAE PT Tachycardia: (%) of subjects,(0)
same,TEAE PT Tachycardia: number of subjects,0
same,TEAE PT Throat tightness: (%) of subjects,(3)
same,TEAE PT Throat tightness: number of subjects,1
same,TEAE PT Time perception altered: (%) of subjects,(3)
same,TEAE PT Time perception altered: number of subjects,1
same,TEAE PT Urinary tract infection: (%) of subjects,(0)
same,TEAE PT Urinary tract infection: number of subjects,0
same,TEAE PT Venous injury: (%) of subjects,(0)
same,TEAE PT Venous injury: number of subjects,0
same,TEAE PT Vertigo: (%) of subjects,(0)
same,TEAE PT Vertigo: number of subjects,0
same,TEAE PT Vessel puncture site erythema: (%) of subjects,(0)
same,TEAE PT Vessel puncture site erythema: number of subjects,0
same,TEAE PT Vision blurred: (%) of subjects,(3)
same,TEAE PT Vision blurred: number of subjects,1
same,TEAE PT Visual impairment: (%) of subjects,(0)
same,TEAE PT Visual impairment: number of subjects,0
same,TEAE SOC Cardiac disorders: (%) of subjects,(6)
same,TEAE SOC Cardiac disorders: number of subjects,2
same,TEAE SOC Ear and labyrinth disorders: (%) of subjects,(0)
same,TEAE SOC Ear and labyrinth disorders: number of subjects,0
same,TEAE SOC Eye disorders: (%) of subjects,(3)
same,TEAE SOC Eye disorders: number of subjects,1
same,TEAE SOC Gastrointestinal disorders: (%) of subjects,(14)
same,TEAE SOC Gastrointestinal disorders: number of subjects,5
same,TEAE SOC General disorders and administration site conditions: (%) of subjects,(11)
same,TEAE SOC General disorders and administration site conditions: number of subjects,4
same,TEAE SOC Immune system disorders: (%) of subjects,(3)
same,TEAE SOC Immune system disorders: number of subjects,1
same,TEAE SOC Infections and infestations: (%) of subjects,(0)
same,TEAE SOC Infections and infestations: number of subjects,0
same,"TEAE SOC Injury, poisoning and procedural complications: (%) of subjects",(3)
same,"TEAE SOC Injury, poisoning and procedural complications: number of subjects",1
same,TEAE SOC Investigations: (%) of subjects,(3)
same,TEAE SOC Investigations: number of subjects,1
same,TEAE SOC Metabolism and nutrition disorders: (%) of subjects,(3)
same,TEAE SOC Metabolism and nutrition disorders: number of subjects,1
same,TEAE SOC Musculoskeletal and connective tissue disorders: (%) of subjects,(3)
same,TEAE SOC Musculoskeletal and connective tissue disorders: number of subjects,1
same,TEAE SOC Nervous system disorders: (%) of subjects,(40)
same,TEAE SOC Nervous system disorders: number of subjects,14
same,TEAE SOC Psychiatric disorders: (%) of subjects,(14)
same,TEAE SOC Psychiatric disorders: number of subjects,5
same,TEAE SOC Renal and urinary disorders: (%) of subjects,(0)
same,TEAE SOC Renal and urinary disorders: number of subjects,0
same,"TEAE SOC Respiratory, thoracic and mediastinal disorders: (%) of subjects",(3)
same,"TEAE SOC Respiratory, thoracic and mediastinal disorders: number of subjects",1
same,TEAE SOC Skin and subcutaneous tissue disorders: (%) of subjects,(3)
same,TEAE SOC Skin and subcutaneous tissue disorders: number of subjects,1
